This note sets out measurements from article PMC10194981, “Chemosensory protein regulates the behavioural response of Frankliniella intonsa and Frankliniella occidentalis to tomato zonate spot virus–Infected pepper (Capsicum annuum)” (PLOS Pathogens, 2023).

For one assay, the target named is FintCSP1-Val132Ala (Frankliniella intonsa, UniProt A0A891LVF4, V132A). Description: Fluorescence (1-NPN) binding and competitive binding assay, FintCSP1 mutant (negative control residue). The method, then:
(§1) The binding affinity of FintCSP1 and FoccCSP to the fluorescent probe N-phenyl-1-naphthylamine (1-NPN) was tested using a Spectramax M2 fluorescence spectrometer (Molecular Devices, USA) as reported previously. Volatile compounds and 1-NPN were first dissolved to a concentration of 1 mM in HPLC-grade methanol and dissolved to their indicated final concentration (2–20 μM) to titrate 2 μM protein solutions resuspended in 50 mM Tris-HCl (pH 7.4). The 1-NPN/FintCSP1 or 1-NPN/FoccCSP mixture was excited at 280 nm, and the emission spectra were recorded at 415 nm. The binding constants (Kd) of FintCSP1 or FoccCSP to 1-NPN were calculated by Scatchard analysis using Prism 5 software (GraphPad, La Jolla, CA, USA). Assuming a protein activity of 100% and that the volatile compound binds to the protein in a 1:1 ratio at saturation, the dissociation constants (Ki) of FintCSP1 or FoccCSP for each ligand were calculated according to the IC50 (the concentration when the ligand replaces 50% of the probe) value of the volatile compounds. The Ki values were calculated according to the following equation: Ki = [IC50]/(1 + [1-NPN]/K1-NPN), where [1-NPN] is the free concentration of 1-NPN, and K1-NPN is the Kd of the 1-NPN/FintCSP1 or 1-NPN/FoccCSP.
(§2) To verify the key amino acids of FintCSP1 and FoccCSP that bind to cis-3-hexenal, six amino acid residues of FintCSP1 were mutated (Lys26Ala, Phe27Ala, Thr28Ala, Glu67Ala, Ser84Ala, and the negative control residue Val132Ala) and nine amino acid residues of FoccCSP were mutated (Lys26Ala, Phe27Ala, Thr28Ala, Thr29Ala, Tyr31Ala, Asp64Ala, Glu67Ala, Gln87Ala, and the negative control residue Val132Ala) with the Fast Mutagenesis System Kit (Transgen Biotech, Beijing, China) using the pET-30a/FintCSP1 and pET-30a/FoccCSP plasmid DNA as template, respectively. […] After validation by sequencing, each recombinant variant protein was produced and purified as described above, and their binding affinity to cis-3-hexenal was measured as described above.

In assay [1] the target is recombinant wild-type FintCSP1 (Frankliniella intonsa, UniProt A0A891LVF4). Description: Fluorescence (1-NPN) binding and competitive binding assay, wild-type FintCSP1. On the procedure:
(§3) FintCSP1 and FoccCSP DNA were released from pEASY-T1/FintCSP1 and pEASY-T1/FoccCSP, respectively, by restriction digestion with BamHI and XhoI and cloned into the pET-30a vector (Invitrogen). The resulting construct was transformed into Transetta (DE3) Escherichia coli competent cells (Transgen). The production of recombinant FintCSP1 and FoccCSP was induced by addition of isopropyl-β-D-1-thiogalactopyranoside (IPTG, 0.2 mM) at 15°C and purified by Ni ion affinity chromatography (Sangon Biotech, Shanghai, China). The target protein was verified by 15% SDS-PAGE, and its concentration was determined with a BCA protein assay kit (Thermo Scientific, Rockford, IL, USA). The recombinant purified protein was stored at −20°C until use.
as §1, with “Volatile compounds and 1-NPN were first dissolved to a concentration of 1 mM in HPLC-grade methanol and dissolved to their indicated final concentration (2–20 μM) to titrate 2 μM protein solutions resuspended in 50 mM Tris-HCl (pH 7.4).” left out

In another assay the target is FoccCSP-Val132Ala (Frankliniella occidentalis, UniProt G4Y3X1, V132A). Description: Fluorescence (1-NPN) binding and competitive binding assay, FoccCSP mutant (negative control residue). The method, then: as §1
FoccCSP-Val132Ala, sequence (G4Y3X1 entry or part of it V132A): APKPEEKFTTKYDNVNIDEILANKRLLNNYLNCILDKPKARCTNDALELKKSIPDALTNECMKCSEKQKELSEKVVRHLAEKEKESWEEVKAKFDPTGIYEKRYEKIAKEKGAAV
(§4) To verify the key amino acids of FintCSP1 and FoccCSP that bind to cis-3-hexenal, six amino acid residues of FintCSP1 were mutated (Lys26Ala, Phe27Ala, Thr28Ala, Glu67Ala, Ser84Ala, and the negative control residue Val132Ala) and nine amino acid residues of FoccCSP were mutated (Lys26Ala, Phe27Ala, Thr28Ala, Thr29Ala, Tyr31Ala, Asp64Ala, Glu67Ala, Gln87Ala, and the negative control residue Val132Ala) with the Fast Mutagenesis System Kit (Transgen Biotech, Beijing, China) using the pET-30a/FintCSP1 and pET-30a/FoccCSP plasmid DNA as template, respectively. Specific primers were designed using Primer Premier 5.0 according to the instructions of the Fast Mutagenesis System Kit (S1 Table). After validation by sequencing, each recombinant variant protein was produced and purified as described above, and their binding affinity to cis-3-hexenal was measured as described above.

In the next assay the target is FoccCSP-Gln87Ala (Frankliniella occidentalis, UniProt G4Y3X1, Q87A). Description: Fluorescence (1-NPN) binding and competitive binding assay, FoccCSP mutant. On the procedure:
as §1, §4

In another assay the target is FoccCSP-Tyr31Ala (Frankliniella occidentalis, UniProt G4Y3X1, Y31A). The assay is described as above. The method, then: as §1, §4
FoccCSP-Tyr31Ala, sequence (G4Y3X1 entry or part of it Y31A): as the sequence (G4Y3X1 entry or part of it V132A) above, with Y12A, A113V counted along it
The target in a further assay is FoccCSP-Lys26Ala (Frankliniella occidentalis, UniProt G4Y3X1, K26A). The assay is described as above. On the procedure: as §1, §4
FoccCSP-Lys26Ala, sequence (G4Y3X1 entry or part of it K26A): as the sequence (G4Y3X1 entry or part of it V132A) above, with K7A, A113V counted along it
The target in a further assay is FoccCSP-Asp64Ala (Frankliniella occidentalis, UniProt G4Y3X1, D64A). The assay is described as above. On the procedure:
as §1, with “Volatile compounds and 1-NPN were first dissolved to a concentration of 1 mM in HPLC-grade methanol and dissolved to their indicated final concentration (2–20 μM) to titrate 2 μM protein solutions resuspended in 50 mM Tris-HCl (pH 7.4).” left out
as §4

The target in another assay is FoccCSP-Phe27Ala (Frankliniella occidentalis, UniProt G4Y3X1, F27A). The assay is described as above. The method, then: as §1, with “Volatile compounds and 1-NPN were first dissolved to a concentration of 1 mM in HPLC-grade methanol and dissolved to their indicated final concentration (2–20 μM) to titrate 2 μM protein solutions resuspended in 50 mM Tris-HCl (pH 7.4).” left out
FoccCSP-Phe27Ala, sequence (G4Y3X1 entry or part of it F27A): as the sequence (G4Y3X1 entry or part of it V132A) above, with F8A, A113V counted along it
as §4

In the next assay the target is FoccCSP-Glu67Ala (Frankliniella occidentalis, UniProt G4Y3X1, E67A). Described as above. The method, then: as §1, with “Volatile compounds and 1-NPN were first dissolved to a concentration of 1 mM in HPLC-grade methanol and dissolved to their indicated final concentration (2–20 μM) to titrate 2 μM protein solutions resuspended in 50 mM Tris-HCl (pH 7.4).” left out
FoccCSP-Glu67Ala, sequence (G4Y3X1 entry or part of it E67A): as the sequence (G4Y3X1 entry or part of it V132A) above, with E48A, A113V counted along it
as §4

The next assay addresses FoccCSP-Thr29Ala (Frankliniella occidentalis, UniProt G4Y3X1, T29A). The assay is described as above. On the procedure:
as §1, with “Volatile compounds and 1-NPN were first dissolved to a concentration of 1 mM in HPLC-grade methanol and dissolved to their indicated final concentration (2–20 μM) to titrate 2 μM protein solutions resuspended in 50 mM Tris-HCl (pH 7.4).” left out
as §4

A further assay deals with FoccCSP-Thr28Ala (Frankliniella occidentalis, UniProt G4Y3X1, T28A). The assay is described as above. On the procedure: as §1, with “Volatile compounds and 1-NPN were first dissolved to a concentration of 1 mM in HPLC-grade methanol and dissolved to their indicated final concentration (2–20 μM) to titrate 2 μM protein solutions resuspended in 50 mM Tris-HCl (pH 7.4).” left out
FoccCSP-Thr28Ala, sequence (G4Y3X1 entry or part of it T28A): as the sequence (G4Y3X1 entry or part of it V132A) above, with T9A, A113V counted along it
as §4

The next assay addresses FintCSP1-Ser84Ala (Frankliniella intonsa, UniProt A0A891LVF4, S84A). Description: Fluorescence (1-NPN) binding and competitive binding assay, FintCSP1 mutant. On the procedure:
as §1, §2

For another assay, the target named is FintCSP1-Glu67Ala (Frankliniella intonsa, UniProt A0A891LVF4, E67A). Described as above. On the procedure: as §1, with “Volatile compounds and 1-NPN were first dissolved to a concentration of 1 mM in HPLC-grade methanol and dissolved to their indicated final concentration (2–20 μM) to titrate 2 μM protein solutions resuspended in 50 mM Tris-HCl (pH 7.4).” left out
FintCSP1-Glu67Ala, sequence (A0A891LVF4 entry or part of it E67A): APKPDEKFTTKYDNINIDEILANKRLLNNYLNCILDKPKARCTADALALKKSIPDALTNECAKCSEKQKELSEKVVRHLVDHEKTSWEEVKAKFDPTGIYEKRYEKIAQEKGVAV
as §4

The next assay has as its target FintCSP1-Lys26Ala (Frankliniella intonsa, UniProt A0A891LVF4, K26A). The assay is described as above. On the procedure:
as §1, with “Volatile compounds and 1-NPN were first dissolved to a concentration of 1 mM in HPLC-grade methanol and dissolved to their indicated final concentration (2–20 μM) to titrate 2 μM protein solutions resuspended in 50 mM Tris-HCl (pH 7.4).” left out
as §4

The next assay deals with FintCSP1-Phe27Ala (Frankliniella intonsa, UniProt A0A891LVF4, F27A). The assay is described as above. On the procedure: as §1, with “Volatile compounds and 1-NPN were first dissolved to a concentration of 1 mM in HPLC-grade methanol and dissolved to their indicated final concentration (2–20 μM) to titrate 2 μM protein solutions resuspended in 50 mM Tris-HCl (pH 7.4).” left out
FintCSP1-Phe27Ala, sequence (A0A891LVF4 entry or part of it F27A): as the sequence (A0A891LVF4 entry or part of it E67A) above, with F8A, A48E counted along it
as §4

The next assay deals with FintCSP1-Thr28Ala (Frankliniella intonsa, UniProt A0A891LVF4, T28A). Described as above. The method, then:
as §1, with “Volatile compounds and 1-NPN were first dissolved to a concentration of 1 mM in HPLC-grade methanol and dissolved to their indicated final concentration (2–20 μM) to titrate 2 μM protein solutions resuspended in 50 mM Tris-HCl (pH 7.4).” left out
as §4

For assay [2], the target named is recombinant wild-type FoccCSP (Frankliniella occidentalis, UniProt G4Y3X1). Put plainly: Fluorescence (1-NPN) binding and competitive binding assay, wild-type FoccCSP. The method, then: as §3, §1
recombinant wild-type FoccCSP, sequence (G4Y3X1 entry or part of it): as the sequence (G4Y3X1 entry or part of it V132A) above, with A113V counted along it
Another assay has as its system F. intonsa antennae. Put plainly: Electroantennogram (EAG) assay. Also on record: species or system Frankliniella intonsa. Conditions: excised F. intonsa antennae. On the procedure:
The FintCSP1, FintCSP2, FintOBP, FintOR, FoccCSP, and enhanced green fluorescent protein (EGFP) coding sequences were obtained from GenBank under accession numbers MT199111, MT211602, OK067245, MT211603, AEP27186.1, and U55761.1, respectively. Primers were designed using Primer Premier 5.0, and the T7 promoter sequence (5′-[…]-3′) was added to the 5′ end of each primer (S1 Table). DNA fragments containing T7 promoter sequences were amplified by PCR using pEASY-T1/target gene or pUC-EGFP (preserved in the laboratory) plasmid DNA as template. Then, a double-stranded RNA (dsRNA) was produced from each target gene using the HiScribe T7 Quick High Yield RNA Synthesis Kit (New England Biolabs) according to the manufacturer’s instructions. Six hundred 2-day-old female F. intonsa or two hundred 2-day-old female F. occidentalis adults were anesthetized using CO2 and microinjected with 40 nL (3 μg/μL) dsRNA (dsFintCSP1 dsFintCSP2, dsFintOBP, dsFintOR or dsFoccCSP or dsEGFP) using a CellTram Oil microinjector (Eppendorf, Hamburg, Germany). The injected thrips were kept on broad beans in an artificial climate incubator as described above and used in subsequent RNAi experiments. Three biological replicates were conducted for each treatment with each dsRNA.
At 24 h after dsRNA injection, the electrophysiological responses of F. intonsa antennae to six volatile components (i.e., m-cymene, cis-3-hexenal, (+)-2-carene, trans-2-hexenal, α-phellandrene, and α-humulene) or F. occidentalis antennae to cis-3-hexenal were recorded using EAG. Antennae of female adult thrips were cut off at the base, and the distal terminus was carefully removed. The tested compounds were dissolved in liquid paraffin, with pure liquid paraffin used as a negative control. An Ag-AgCl2 glass electrode and Kaissling electrode solution were used in the experiment according to Tian et al.. The base of the antenna was inserted into the glass capillary filled with electrode solution at the end of the reference electrode; the top of the antenna was connected to the glass capillary at the end of the recording electrode to ensure no bubbles in the glass capillary. After successful connection, the antennae were stimulated with each chemical in the following order: liquid paraffin, volatile compounds, and liquid paraffin. Stimulus time was 0.2 s with each stimulus at 40 s intervals. At least 10 antennae were tested for each volatile compound. The EAG values to volatile compounds were calculated using the following equation: absolute value of EAG reaction = reaction value of the tested sample—average value of two control measurements.

FintCSP1-Val132Ala, sequence (A0A891LVF4 entry or part of it V132A): as the sequence (A0A891LVF4 entry or part of it E67A) above, with A48E, V113A counted along it
FoccCSP-Asp64Ala, sequence (G4Y3X1 entry or part of it D64A): as the sequence (G4Y3X1 entry or part of it V132A) above, with D45A, A113V counted along it
FintCSP1-Ser84Ala, sequence (A0A891LVF4 entry or part of it S84A): as the sequence (A0A891LVF4 entry or part of it E67A) above, with A48E, S65A counted along it
FoccCSP-Thr29Ala, sequence (G4Y3X1 entry or part of it T29A): as the sequence (G4Y3X1 entry or part of it V132A) above, with T10A, A113V counted along it
FoccCSP-Gln87Ala, sequence (G4Y3X1 entry or part of it Q87A): as the sequence (G4Y3X1 entry or part of it V132A) above, with Q68A, A113V counted along it
FintCSP1-Lys26Ala, sequence (A0A891LVF4 entry or part of it K26A): as the sequence (A0A891LVF4 entry or part of it E67A) above, with K7A, A48E counted along it
recombinant wild-type FintCSP1, sequence (A0A891LVF4 entry or part of it): as the sequence (A0A891LVF4 entry or part of it E67A) above, with A48E counted along it
FintCSP1-Thr28Ala, sequence (A0A891LVF4 entry or part of it T28A): as the sequence (A0A891LVF4 entry or part of it E67A) above, with T9A, A48E counted along it

`c1ccc(Nc2cccc3ccccc23)cc1` [1-NPN, N-phenyl-1-naphthylamine, reference compound]: the Kd (usually the constant that tells how readily two partners part at equilibrium) was determined as 6.77 ± 0.36 µM at FintCSP1-Val132Ala; 6.07 ± 0.4 µM in [1]; 7.26 ± 0.66 µM on FoccCSP-Val132Ala; 20.3 ± 2.25 µM on FoccCSP-Gln87Ala; 9.79 ± 0.87 µM at FoccCSP-Tyr31Ala; 17.4 ± 1.32 µM on FoccCSP-Lys26Ala. Also, the Kd is 31 ± 4.55 µM on FoccCSP-Asp64Ala; 7.09 ± 0.39 µM at FoccCSP-Phe27Ala; 15.7 ± 2.3 µM on FoccCSP-Glu67Ala; 15.5 ± 1.74 µM at FoccCSP-Thr29Ala; 19.9 ± 2.43 µM at FoccCSP-Thr28Ala; 3.48 ± 0.33 µM on FintCSP1-Ser84Ala. In addition, the Kd on FintCSP1-Glu67Ala was 4.5 ± 0.61 µM; on FintCSP1-Lys26Ala, 3.3 ± 0.39 µM; on FintCSP1-Phe27Ala, 4.38 ± 0.49 µM; at FintCSP1-Thr28Ala, 3.85 ± 0.41 µM; in assay [2], 6.36 ± 0.51 µM.
In the case of `CC1=CC2C(CC1)C2(C)C` (single isomer, unassigned; (+)) [(+)-2-carene], the EAG peak amplitude result in the assay with F. intonsa antennae (1 mg/L in liquid paraffin) is given as “–0.016 mV”.
As for `CC1=CC[C@H](C(C)C)C=C1` (racemic) [α-phellandrene], the EAG peak amplitude entry in the assay on F. intonsa antennae (10 mg/L in liquid paraffin) was “–0.018 mV”.
